Experimental findings from paper PMC8050214 (Scientific Reports, 2021) are described below.

For assay [1], the target named is T1, hD2LR (human dopamine D2 receptor, long splice variant) (Homo sapiens, UniProt P14416).
T1 construct: gene DRD2; full-length long isoform, stably expressed in Flp-In HEK293 cells (G protein BRET assay); C351I G alpha subunits co-transfected as sensors; hD2LR-NLuc fusion with GRK2-Venus in the GRK2 recruitment assay (SCH23390 row)
Put plainly: BRET G protein (GαoA) activation, Gβγ-Venus / masGRK3ct-NLuc release. The format is cell-based.

Assay [2] addresses T1, hD2LR (human dopamine D2 receptor, long splice variant). Put plainly: Schild analysis, BRET GRK2 recruitment (hD2LR-NLuc / GRK2-Venus). The format is cell-based. Conditions: read-out: pA2 (converted).

In the case of `CCN(CC)C(=O)N[C@H]1C[C@@H]2c3cccc4[nH]cc(c34)C[C@H]2N(C)C1` [Terguride], the half-maximal effective concentration (EC50) – broadly, the concentration at which the effect is half-maximal – in assay [1] was 0.00437 µM. For `Clc1cccc(C2CCN(CCCOc3ccc4scnc4c3)CC2)c1Cl` [UNC9994], the response in assay [1] was half-maximal at 0.282 µM (EC50).

Consider `CN1CCc2cc(Cl)c(O)cc2[C@@H](c2ccccc2)C1` [SCH23390], for which the Kb in assay [2] was 0.525 µM. `C=CCN1C[C@H](C(=O)N(CCCN(C)C)C(=O)NCC)C[C@@H]2c3cccc4[nH]cc(c34)C[C@H]21` [Cabergoline] had a concentration giving a half-maximal response (EC50) in assay [1] of 0.00158 µM.

As for `Oc1c(CN2CCN(c3ccccn3)CC2)cc(Cl)c2cccnc12` [MLS1547], it took 0.209 µM to reach a half-maximal effect in assay [1] (EC50). This EC50 is about 130-fold higher than that of the molecule before. Turning to `CCCN(CCC)CCc1cccc2c1CC(=O)N2` [Ropinirole], a half-maximal effect in assay [1] (EC50) was put at 0.00282 µM. `CC(C)C[C@H]1C(=O)N2CCC[C@H]2[C@]2(O)O[C@](NC(=O)[C@@H]3C=C4c5cccc6[nH]c(Br)c(c56)C[C@H]4N(C)C3)(C(C)C)C(=O)N12` [Bromocriptine] had an EC50 in assay [1] of 0.0145 µM.
